The text below walks through data of ChEMBL document CHEMBL1201862, “PubChem BioAssay data set” (2004).

Assay [1] in a line: glucagon-like peptide-1 release potency in STC-1, concentration-response, half-maximal inhibitory concentration in the STC-1 line (AID 1117345). Format: functional, cell-based.
The nature of assay [2]: Potency on glucagon-like peptide 1 release, dose-response in NCI-H716 cell line, half maximal inhibitory concentration (AID 1117344). It is filed as functional, cell-based.
A short description of assay [3]: growth inhibition of SK-MEL-5 melanoma cells – cell-based, CellTiter-Glo luminescence, dry powder, set 8, orthogonal assay for MITF inhibitor project, dose response (AID 651586). It is filed as functional.
Assay [4] in a line: MITF Orthogonal Assay: MALME3 CTG Assay Measured in Cell-Based System Using Plate Reader - 2084-04_Inhibitor_Dose_DryPowder_Activity_Set6. It is filed as functional. As to conditions: MALME-3.
Assay [5] can be described thus: viability loss in MITF-independent A375 cells – cell-based, CellTiter-Glo luminescence, dry powder, set 7, counter-screen for MITF inhibitor project, dose response (AID 624490). It is filed as functional. As to conditions: A-375. (In general: ATP-based viability assays read luminescence as a measure of living cells.)
The nature of assay [6]: cytotoxicity in melanoma parental cells – cell-based, CellTiter-Glo, dry powder, set 6, MITF inhibitor project, dose response (AID 624429). Format: functional. As to conditions: SK-MEL-5.
The nature of assay [7]: cytotoxicity in MITF-independent A375 cells – cell-based, CellTiter-Glo luminescence, dry powder, set 9, counter-screen for MITF modulator project, dose response (AID 651591). Format: functional. As to conditions: A-375.
A short description of assay [8]: growth inhibition of MALME3 cells – cell-based, CellTiter-Glo luminescence, dry powder, set 5, orthogonal assay for MITF inhibitor project, dose response (AID 651584). It is filed as functional. As to conditions: MALME-3.
Assay [9] in a line: MITF Measured in Cell-Based System Using Plate Reader - 2084-01_Inhibitor_Dose_DryPowder_Activity_Set7. It is filed as functional.
A short description of assay [10]: MITF Orthogonal Assay: SK-MEL-5 CTG Assay Measured in Cell-Based System Using Plate Reader - 2084-02_Inhibitor_Dose_DryPowder_Activity_Set5. It is filed as functional.
Assay [11] in a line: inhibitors of TRPM1-promoter reporter in SK-MEL-5 – cell-based, luciferase, dry powder, set 9, MITF inhibitor project, dose response (AID 651588). Format: functional.
The nature of assay [12]: cytotoxicity in MITF-independent A375 cells – cell-based, CellTiter-Glo luminescence, dry powder, set 4, counter-screen for MITF inhibitor project, dose response (AID 624364).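 Further: A375 melanoma cells are MITF independent so this is a counter screen.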 It is filed as functional. As to conditions: A-375.
Assay [13] in a line: MITF Measured in Cell-Based System Using Plate Reader - 2084-01_Inhibitor_Dose_DryPowder_Activity_Set6. Format: functional.
The target in assay [14] is T1, Sphingosine 1-phosphate receptor 2 (Homo sapiens, UniProt O95136). Put plainly: Dose Response Cell Based Assay for Agonists of the S1P2 Receptor. [Related pubchem assays: 729, 736, 843 ]. Format: functional.
T1 sequence (O95136 whole entry): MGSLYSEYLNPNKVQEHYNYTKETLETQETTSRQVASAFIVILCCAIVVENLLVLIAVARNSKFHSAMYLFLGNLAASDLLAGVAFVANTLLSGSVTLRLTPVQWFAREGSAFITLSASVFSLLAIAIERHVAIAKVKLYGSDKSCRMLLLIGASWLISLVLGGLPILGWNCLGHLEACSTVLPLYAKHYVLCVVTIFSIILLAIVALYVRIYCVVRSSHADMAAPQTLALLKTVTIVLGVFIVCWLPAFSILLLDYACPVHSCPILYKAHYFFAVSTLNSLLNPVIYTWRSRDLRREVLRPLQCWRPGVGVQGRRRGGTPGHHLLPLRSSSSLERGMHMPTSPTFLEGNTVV
Assay [15] can be described thus: Trypanosoma cruzi growth suppression in host cells – NIH3T3 host cells, beta-gal luminescence, confirmation (AID 2044).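 Further: intracellular parasites grown in NIH/3T3 mouse fibroblasts as host cells; luminescent beta-galactosidase reporter signal from transgenic T. cruzi replicating inside host cells; inhibitors lower the luminescence signal.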 It is filed as functional, cell-based.
Assay [16] in a line: loss of viability in HepG2 cells – cell-based, CellTiter-Glo, cherry-picked, cytotoxicity control for Shn3 inhibitor project, dose response (AID 624134). It is filed as functional.
The nature of assay [17]: non-specific 3'UTR reporter inhibition in Clone20-Shn3RL – cell-based, Renilla luciferase, cherry-picked, counter-screen for Shn3 inhibitor project, dose response (AID 624133). Format: functional.
The test system of assay [18] is INS1. Description: INS-1E survival protection against cytokine death – cell-based, luminescence, retest, dose response (AID 449756).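 Further: cell death triggered by IL-1 beta plus TNF-alpha plus IFN-gamma mixture; protective hits raise ATP signal compared with cytokine alone wells.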 Format: functional. As to conditions: Rattus norvegicus.
Assay [19] is described as follows: reduction of Shn3 3'UTR-driven luciferase in osteoblasts – cell-based, Clone20 osteoblasts, firefly luciferase, cherry-picked, dose response (AID 624132).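 Further: firefly luciferase luminescence from reporter carrying the Shn3 3'UTR in osteoblasts.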 Format: functional.
Assay [20] can be described thus: HEK-293T viability loss after treatment – luminescence, T-cell screen hits, cytotoxicity control for TCR NF-kB inhibitor project, dose response (AID 489026).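 Further: cells exposed to compound about 14 hours before the viability readout.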 It is filed as functional, cell-based.
Assay [21] in a line: NIH3T3 cell viability loss – ATP luminescence, mouse fibroblasts, counter-screen, dose response (AID 2010).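 Further: cells exposed to compound for about 90 hours before reading.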 Format: functional, cell-based.
Assay [22] deals with T1, Sphingosine 1-phosphate receptor 2. Description: Dose Response Cell Based Assay for Antagonists of the S1P2 Receptor. [Related pubchem assays: 856, 736 ]. Format: functional.
Assay [23] addresses T2, DNA repair and recombination protein RAD54-like (Homo sapiens, UniProt Q92698).
T2 sequence (Q92698 whole entry): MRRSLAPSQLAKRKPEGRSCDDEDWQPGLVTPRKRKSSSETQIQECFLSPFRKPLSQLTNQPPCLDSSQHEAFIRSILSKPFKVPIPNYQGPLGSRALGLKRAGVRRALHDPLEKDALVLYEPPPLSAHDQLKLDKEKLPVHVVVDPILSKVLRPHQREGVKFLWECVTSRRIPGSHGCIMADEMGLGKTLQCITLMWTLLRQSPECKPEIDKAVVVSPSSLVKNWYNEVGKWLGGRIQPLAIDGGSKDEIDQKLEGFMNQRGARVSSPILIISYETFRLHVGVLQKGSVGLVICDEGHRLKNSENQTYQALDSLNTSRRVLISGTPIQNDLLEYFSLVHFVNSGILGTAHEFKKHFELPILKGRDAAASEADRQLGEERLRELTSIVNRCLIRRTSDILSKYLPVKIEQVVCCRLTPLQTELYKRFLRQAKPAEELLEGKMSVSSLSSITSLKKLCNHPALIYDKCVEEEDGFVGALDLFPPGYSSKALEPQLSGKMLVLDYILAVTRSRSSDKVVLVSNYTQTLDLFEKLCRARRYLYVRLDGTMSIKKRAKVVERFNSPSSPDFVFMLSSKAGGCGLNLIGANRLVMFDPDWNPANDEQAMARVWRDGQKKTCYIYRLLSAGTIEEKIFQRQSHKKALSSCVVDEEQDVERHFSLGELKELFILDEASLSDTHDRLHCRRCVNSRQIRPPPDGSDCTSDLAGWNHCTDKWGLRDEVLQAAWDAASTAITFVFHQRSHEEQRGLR
Put plainly: RAD54 Holliday junction migration blockers – biochemical, fluorescence, cherry-picked samples, dose series, confirmation (AID 651657). Format: functional.

For assay [24], the target named is T3, DNA repair protein RAD52 homolog (Homo sapiens, UniProt P43351).
T3 sequence (P43351 whole entry): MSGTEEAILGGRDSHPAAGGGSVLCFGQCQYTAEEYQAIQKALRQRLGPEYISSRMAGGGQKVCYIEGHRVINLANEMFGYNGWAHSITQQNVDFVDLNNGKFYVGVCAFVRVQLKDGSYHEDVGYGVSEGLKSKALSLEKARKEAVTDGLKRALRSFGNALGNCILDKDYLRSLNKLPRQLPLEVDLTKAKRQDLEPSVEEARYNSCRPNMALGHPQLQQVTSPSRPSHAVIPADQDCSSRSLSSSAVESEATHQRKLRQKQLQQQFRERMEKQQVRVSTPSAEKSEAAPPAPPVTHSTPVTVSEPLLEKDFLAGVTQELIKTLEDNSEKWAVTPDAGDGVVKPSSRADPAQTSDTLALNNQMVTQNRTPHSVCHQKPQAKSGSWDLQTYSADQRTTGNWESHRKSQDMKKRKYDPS
Format: functional, biochemical.

Assay [25] has as its system Vero. Description: inhibition of WNV-induced cytopathic effect – cell-based, CPE readout (AID 1621). Format: functional. As to conditions: Chlorocebus sabaeus. Background: Protection from cytopathic effect is a common read-out in antiviral testing.

Activity calls are given as the source filed them. A value given as a limit tells only on which side of the number the result lay.

One may read the IC50 as the concentration that inhibits the measured activity by half. For the molecule `Cc1c(C)c2c(c(C)c1OC(=O)CCC(=O)OCCO)CC[C@@](C)(CCC[C@H](C)CCC[C@H](C)CCCC(C)C)O2`, the IC50 in [1] and in assay [2] was > 40 µM (inactive) in each case.

As a reminder, the AC50 is the midpoint of the concentration-response curve, whichever way the signal moves. `NC1=C(NS(=O)(=O)c2cccs2)C(=O)c2ccccc2C1=O`: the AC50 in assay [3] was 22.1 µM (active); in assay [4] it was 32.5 µM (active); in assay [5], 53 µM (active); in assay [6] it was 16.7 µM (active); in assay [7] it was > 70 µM (inactive); in assay [8], 32.5 µM (active). Besides, the AC50 in [9] was 5.42 µM (active); in assay [10] it was 16.9 µM (active); in assay [11], 21.3 µM (active); in assay [12] it was > 70 µM (inactive); in [13], 5.31 µM (active).

As usually defined, the EC50 is the midpoint of the concentration-response curve. As to `Cc1cc(C)n2cc(CSc3nnnn3-c3ccc(Cl)cc3)nc2n1`, the concentration for a half-maximal effect (EC50) in assay [14] is on record as > 50 µM (not active).

With `Nc1nc(Cl)cc(N2CCC(c3cc(-c4ccc(Cl)cc4)[nH]n3)CC2)n1`, the results for the EC50 in assay [15] and in assay [21] were 2.13 µM (active) and 7.5 µM (active), respectively. Moreover, the AC50 in assay [16] was 19.5 µM (active); in [17], 11.1 µM (active); in assay [18], 4.41 µM (active); in assay [19], 2.43 µM (active). Further, the IC50 in assay [20] was 64.3 µM (inactive); in assay [22], 7.01 µM (active).

Regarding `COC(=O)c1sc2cc(C(F)(F)F)cnc2c1-c1ccccc1`, in assay [22], the concentration for half-maximal inhibition (IC50) is reported as > 30 µM (not active).

For the molecule `CCCN(CCC)CCCN=C(S)Nc1ccc2nc(N3CCCC3)cc(C)c2c1`, the AC50 was 19.4 µM (active) in [23] and 9.06 µM (active) in assay [24]. Moreover, the concentration for a half-maximal effect (EC50) in [15] is 1.96 µM (active); in assay [21] it was 10.1 µM (active). Besides, the IC50 in assay [25] is 25.4 µM (active).
